Here are results for 4 compounds from US20110195898A1, “TREATMENT OF ALZHEIMER'S DISEASE AND MILD COGNITIVE IMPAIRMENT USING GNRH-I ANALOGS AND ONE OR MORE OF ACETYLCHOLINESTERASE INHIBITORS AND NMDA RECEPTOR ANTAGONISTS” (Voyager Pharmaceutical Corporation, priority 2004, published 2011).

Structures are written as SMILES. Structures can show the parent of a compound that is named as a salt.

Series [1] has as its system men with prostate cancer. The note with it: daily injections for up to two years, Lupron Depot package insert; cited from earlier work.
For series [2], the system named is neuroblastoma cell lines (DAOY, SKNMC, CCF-SttG1). The series is described as follows: Cell growth assay (WST-8, 96 well), neuroblastoma cell lines. The class given is cell-based. The note with it: 10^-5 M (12.25 μg/ml) vs 0 M control, WST-8, optical density 450 nm, FIG. 5. The method, then: (§1) For cell growth assays in a 96 well format, a specific number of cells were plated (about 1000 cells for each line). All cell lines were plated in their respective growth media (supplemented with either 1% regular fetal bovine serum, 1% charcoal/dextran-stripped fetal bovine serum or 0.25% Albumax™ (Invitrogen Corp., Grand Island N.Y.)) and allowed to settle for 24 hours. Leuprolide treatments were commenced […]. A 10 mM (12.25 mg/ml) solution of leuprolide acetate salt in phosphate buffered saline was prepared and diluted appropriately to obtain the desired final concentrations. Treatment concentrations were 0 M (control) and 10^−5 M (shown as 1.00E-5, 12.25 μg/ml). The number of cells in each group was measured by incubating cells with WST-8 (2-(2-methoxy-4-nitrophenyl)-3-(4-nitrophenyl)-5-(2,4-disulfophenyl)-2H-tetrazolium, monosodium salt) which produces a water soluble formazan dye that was detected by measuring optical density (at 450 nm) using a μQuant™ Universal Microplate Spectrophotometer (Bio-Tek® Instruments, Inc., Winooski, Vt.).
A general note: Tetrazolium dyes change colour on reduction, which living cells bring about.

Series [3] has as its system testosterone suppression. The note with it: Fowler et al. 2000; cited from earlier work.
Series [4] relates to glioblastoma cell lines (LN229, U87, U118MG). The series is described as follows: Cell growth assay (WST-8, 96 well), glioblastoma cell lines. The class given is cell-based. The note with it: 10^-5 M (12.25 μg/ml) vs 0 M control, WST-8, optical density 450 nm, FIG. 5. The method, then: as §1
Series [5] concerns women diagnosed with mild-to-moderate Alzheimer's Disease. The series is described as follows: ADAS-Cog test, 48-week double-blind placebo-controlled clinical trial. The class given is in vivo, human. The method, then:
During 2004-2005, a 48-week, double-blind placebo-controlled dose ranging study was conducted in 108 women diagnosed with mild-to-moderate Alzheimer's Disease. The study inclusion criteria included a requirement that each patient either (a) is taking a cholinesterase inhibitor, began taking it at least 90 days prior to the trial and is likely to continue taking it at the same dosage level throughout the trial; or (b) has never taken a cholinesterase inhibitor or has stopped taking at least 90 days prior to the trial and is likely to remain off cholinesterase inhibitors throughout the trial. The patients in the subgroup taking cholinesterase inhibitors were in turn divided into two groups for analysis purposes:
Group 1 patients were administered an injectable 22.5 mg formulation of leuprolide acetate in combination with a stable dose of acetylcholinesterase inhibitors (AChEI). At the completion of the study, Group 1 included 24 subjects. Group 2 patients were administered a placebo injection (saline) in combination with a stable dose of AChEI. […]
During the Phase II study, the administrations of leuprolide acetate and placebo occurred at weeks 0, 12, 24, 36, and 48 of the study, whereas doses of AChE inhibitors were taken as prescribed by a physician (determined as the proper beneficial level) to each specific patient before enrollment. […]

In series [6] the test system is mild-to-moderate Alzheimer's disease patients. The note with it: cited from earlier work.
The conditions of series [7]: in vivo; cited from earlier work.

As for `CCNC(=O)[C@@H]1CCCN1C(=O)[C@H](CCCNC(=N)N)NC(=O)[C@H](CC(C)C)NC(=O)[C@@H](CC(C)C)NC(=O)[C@H](Cc1ccc(O)cc1)NC(=O)[C@H](CO)NC(=O)[C@H](Cc1c[nH]c2ccccc12)NC(=O)[C@H](Cc1c[nH]cn1)NC(=O)[C@@H]1CCC(=O)N1` [leuprolide acetate, 5-oxo-L-prolyl-L-histidyl-L-tryptophyl-L-seryl-L-tyrosyl-D-leucyl-L-leucyl-L-arginyl-N-ethyl-L-prolinamide acetate (salt)], the “adverse effects of 20 mg per day versus 1 mg per day” value in series [1] is “did not result in any adverse effects different from what was seen with the 1 mg dose”. The “cell growth of neuroblastoma cell lines” value in series [2] is given as “inhibits cell growth”; in series [2] (listed as Leuprolide) it was “very effective at slowing the growth”. The “serum concentration considered adequate for testosterone suppression” value in series [3] is “less than 1 ng/ml”. Besides, the “cell growth of glioblastoma cell lines” value is reported as “inhibits cell growth” in series [4] and “very effective at slowing the growth” in series [4] (listed as Leuprolide). For the same compound, in series [5] (100% decline = 5.6 ADAS-cog points in a year (literature placebo)), the “cognitive decline as percent of expected no-treatment decline” value amounted to 84%. Besides, the “decline on ADAS-cog (mean change from baseline)” value in series [5] (females, over 48 weeks, stable dose of AChEI, leuprolide acetate (Lupron Depot) 22.5 mg at 12-week intervals where given) was 4.68 points.

For the compound `NCCCS(=O)(=O)O` [tramiprosate], the “overall 18 month decline on ADAS-cog, mild patients” value in series [6] (ongoing trial, overall decline, mild patients) is recorded as 5.5 points. Besides, in series [6] (ongoing trial, overall decline, moderate patients), the “overall 18 month decline on ADAS-cog, moderate patients” value is 6.3 points.

Consider `COc1cc2c(cc1OC)C(=O)C(CC1CCN(Cc3ccccc3)CC1)C2` (stereo not drawn) [donepezil, Donepezil], for which the “decline on ADAS-cog after 52 weeks of treatment” value in series [6] (Wilcock et al., one year trial comparing two AChEIs) is reported as 3.43±0.8 points.

Take `CC12CC3CC(C)(C1)CC(N)(C3)C2` [Memantine]: in series [7], the “dose excreted in the urine unchanged” value is “up to 82%”.
